Assay results from patent publication US11733243B2, “Use of acamprosate to modulate ERK1/2 activation in animal models for FXS and ASD and individuals diagnosed with FXS and ASD” (Indiana University Research and Technology Corporation, priority 2013, dated 2023).
Values joined by “and” are separate entries in the source; they are usually repeats but may differ in a detail not shown here. Identical values can stand only once. “Also recorded” adds a separate entry of the source.

How the values were obtained:
GABA(A) = settings: animal studies; cited from earlier work
sAPP = test: plasma sAPP total ELISA pre- and post-acamprosate; assay type: in vivo, human
Description: For sAPP levels, the Test plasma samples should be measured soon after collection. […] Just before assay, we thawed the test samples at a low temperature and mixed them completely. The plasma samples should be diluted appropriately with the EIA buffer, if needed. Duplicate measurement of test samples and standard are recommended. We used test samples in neutral pH range, and avoided the contaminations of organic solvent that may affect the measurement. Regarding the standard to quantify levels of sAPP, we prepared a series of sAPP standards in EIA buffer by serial dilutions, from 0.39 ng/mL to 25 ng/mL.
The ELISA plate was pre-coated with anti-human APP (R12A1) mouse IgG (IBL). First, the wells for reagent blank was determined, and 100 μL each of “EIA buffer” or 10 mM NaHCO3 buffer was added into the wells. Likewise, wells were assigned for test sample blank, test sample and diluted standard. Then 100 μL each of test sample blank, test sample and dilutions of standard was added into the appropriate wells. The test sample included the plasma sample from each subject, which may vary from 5-25 μl, made up to 100 μL with the EIA buffer. Each pre-coated plates was incubated overnight at 4° C. after covering it tightly with a plate lid. The plate was kept onto a rocker with gentle shaking. The next day, each well of the pre-coated plate was vigorously washed with wash buffer containing 0.05% Tween20 in phosphate buffer. This was performed by filling each well with wash buffer, leaving the pre-coated plate laid for 15-30 seconds and removing wash buffer completely from the plate by snapping. This procedure was repeated five times. After removing the remaining liquid from all wells completely by snapping the plate onto paper towel, we added 100 μL of labeled antibody solution into the wells of test samples, diluted standard and test sample blank. HRP labeled anti-Human APP (R101A4) mouse IgG from IBL was used. The plate was incubated for 30 minutes at 4° C. after covering it with plate lid, and then washed the plate 5 times in the same manner as described before. To develop the color, 100 μL of the Chromogen (TMB solution) was adding into the wells, and the plate was incubated for 30 minutes at room temperature in the dark.
When the liquid started turning blue (by addition of the Chromogen), 100 μL of the Stop solution (1N H2SO4) was added into the wells. […] A plate reader was used and measurements were conducted at 450 nm against a reagent blank. […]
The first project enrolled 12 youth aged 5 to 17 years with fragile X syndrome and comorbid ASD in a 10-week open-label trial of acamprosate. […] Plasma sAPP total and sAPPα were determined separately in serum using the ELISA kit obtained from Immuno Biological Laboratories (IBL, Gumma, Japan). […]

[1] = safety and adverse effects in the autistic disorder trial; assay type: in vivo, human; settings: idiopathic ASD, nine patients, range 600-1,998 mg/day
Protocol: A 12-week single-blind, placebo-controlled trial of the effect of acamprosate in the treatment of 12 youths with autistic disorder aged 5 to 17 years was carried out. In order to pilot test use of acamprosate in youth with autism targeting core social impairment, was conducted. All subjects and their family members were blinded to treatment status. All subjects participated in a 2 week placebo-lead-in phase prior to 10 weeks of treatment with acamprosate. For this project, enteric coated commercially available 333 mg acamprosate pills were over-encapsulated and identical matching placebo manufactured for the project. Placebo-responders, defined by a Clinical Global Impressions Improvement scale (CGI-I) score of 1 “very much improved” or 2 “much improved” (ratings anchored to core social deficits) at week 2 were asked to exit the study. During active treatment with acamprosate, dosing was increased in 333 mg increments per week over the first six weeks of active treatment to a maximum dose of 1,332 mg/day (weight<5 60 kg) or 1,998 mg/day (weight>60 kg). During the final four weeks of active drug treatment, subjects were maintained on a stable highest tolerated (optimal) dose. The primary outcome measure was the clinician-rated CGI-I anchored to symptoms of social impairment. […]

[2] = safety measures and adverse effects in the FXS trial; assay type: in vivo, human
Description: Safety assessment and monitoring began at screen when all subjects underwent a medical history, physical examination, and full psychiatric interview. A physical examination was also completed at end point. Vital signs, including height and weight, were obtained at each study visit. At screen, genetic testing for FXS was obtained if record of molecular testing utilizing Southern Blot and PCR was not available. At screen, week 6, and endpoint, laboratory tests of blood and urine, including CBC with differential and platelets, electrolyte panel, liver associated enzymes, lipid panel, and urine pregnancy test (in females) were obtained. An electrocardiogram was also obtained at screen and endpoint.
The pilot study ran for 10 weeks. Safety lab screens were carried out at weeks 6 and 10. Physiologic parameters measured during the safety screens were as follows: vital signs, LFTs, electrolyte panels, CBC with diff/plts, lipid panel, glucose, urinalysis and ECG.
In-person clinical visits were scheduled for every two weeks. Telephonic evaluations were carried out at weeks 1, 3, and 5. Each subject was evaluated for side effects at every interaction with the practitioner.

For `CC(=O)NCCCS(=O)(=O)O` [Acamprosate, 3-Acetamidopropane-1-sulfonic acid], the “action at GABA(A)” value (GABA(A)) is listed as “exhibits GABA(A) agonism”, the “fractional change in sAPP(total)-CP from Baseline to Week 12” value (sAPP; individual patients 1-6) is listed as −0.8279 and −0.3066 and −0.0102 and −0.1029 and −0.437 and −0.544 and the “sAPP(total)-CP level, Week 12” value (sAPP; individual patients 1-6, after treatment) is listed as 5.561 ng/mL and 25.16 ng/mL and 12.84 ng/mL and 8.077 ng/mL and 56.8 ng/mL and 7.547 ng/mL. For the same compound, the “mean sAPP total post-treatment” value (sAPP; pooled 15 participants (9 FXS, 6 idiopathic ASD), 1,054 mg/day, pre-treatment 32.6±38.3, p=0.01) was 21.4 ± 32.3 ng/mL, the “mean sAPP total at endpoint” value (sAPP; six subjects, idiopathic ASD trial, baseline 34.7, p=0.02) was 19.3 ng/mL and the tolerability [1] was “well tolerated with no adverse effects leading to drug discontinuation or laboratory/vital sign abnormalities noted; also recorded: well tolerated with no adverse effects leading to drug discontinuation and no vital sign or safety laboratory changes noted”. For the same compound, the “changes in lipids, electrolytes, liver function tests, or blood counts” value ([2]; 10 weeks) was “no clinically significant or mean changes”, the “changes in weight, pulse, or blood pressure” value ([2]; 10 weeks) was “No clinically significant changes” and the “Increased body rocking (mild), Number of Patients” value ([2]; 12 subjects) was 1. For the same compound, the “subjects who experienced a mild adverse event” value ([2]; 12 subjects) was 75%, the tolerability ([2]; 12 subjects, 10 weeks) was “well tolerated overall, with no severe or serious adverse effects” and the “changes on ECG including QTc interval” value ([2]; screen vs endpoint) was “No clinically significant changes were noted on ECG”.
